Test: Human HepG2 cell viability assay in 384 well format
Type: toxicity, cell-based
Design: dose 125 nL, time 70.5 hour; cytotoxicity at 70.5 h: concentration not given beside the values
Conditions: HepG2 cells, read-out: Inhibition

Row | SMILES | cytotoxicity at 70.5 h
1 | CC(=O)Nc1ccc(-c2ccccc2CCN)cc1 | -4.46%
2 | CCNC(=O)[C@@H]1C[C@@H](N)CN1C(=O)Cc1cc(C)ccc1C | -8.37%
3 | CCc1nc(C)sc1CN1CC[C@@](O)(C2CC2)[C@H](C)C1 | -7.56%
4 | O=C1CC[C@H]2CN(C3CCOCC3)CC[C@H]2N1CCC1=CCCCC1 | 2.84%
5 | Cc1nc2c(c(NCc3ccccc3)n1)CCN(C(=O)C1CCC1)CC2 | -6.11%
6 | CN(C)c1nc(NCc2ccccc2Cn2cccn2)ncc1F | 5.75%
7 | Cc1ccc([C@H]2CN(C(=O)CC3CCC3)C[C@@H]2N)o1 | 0.0304%
8 | CCS(=O)(=O)N1CCC(c2nnc(CN3CCCCC3)n2C)CC1 | -3.65%
9 | NCC1Cc2cc(-c3cncc(C(=O)N4CCOCC4)n3)cc(Cl)c2O1 (centres undefined) | -4.26%
10 | Cn1cccc1C(=O)N1C[C@H]2CC[C@@H]1CN(Cc1cscn1)C2 | 1.29%
11 | CCCc1cc(CNC2CCN(c3cc(C)nc(N)n3)CC2)on1 | -5.61%
12 | O=C(C1CCCO1)N1CCC(n2cc(-c3ccsc3)nn2)CC1 (centres undefined) | -13.3%
13 | Cc1nn(C)c(C)c1CCC(=O)N1CCCOC(Cn2cccn2)C1 (centres undefined) | -2.69%
14 | O=C1CCCCN1Cc1cccc(OC(F)F)c1 | 4.41%
15 | CC(=O)NCC(=O)N1CCC(C2CCN(Cc3ccc(Cl)cc3)C2)CC1 (centres undefined) | -2.13%
16 | Cc1ncsc1CCCn1ccnc1-c1cc2n(n1)CCCNC2 | -9.03%
17 | O=C(CCc1cn[nH]c1)N1CCC(C2CCN(c3ncccn3)CC2)C1 (centres undefined) | 0.44%
18 | Cc1c[nH]c(CN(C)C(=O)[C@]23CNC[C@H]2CNC3)n1 | -4.74%
19 | C1Cc2nc(CCNc3nc(C4CC4)nc4c3CCNCC4)sc2C1 | -4.01%
20 | Cc1cc(C)n(CCNC(=O)c2ncc[nH]2)c(=O)n1 | -3.22%
21 | COc1cccc(Cc2nc3c([nH]2)CC(C)(C)CNC3=O)c1OC | -1.08%
22 | CC(COc1ccccc1)NCc1cn2ccccc2n1 (centres undefined) | -4.87%
23 | COc1ccnc(N2C[C@@H](NS(=O)(=O)N(C)C)[C@H](C(C)C)C2)n1 | 9.46%

Row | SMILES | cytotoxicity at 70.5 h
24 | COCCN(C)C[C@@H]1CN(c2nnc(C(C)C)s2)C[C@@H]1CO | -9.43%
25 | CN(Cc1cc(C(C)(C)C)n[nH]1)C(=O)c1ccc2nccn2c1 | -2.34%
26 | Cc1cc2nc(C(C)C)cc(NCC(c3ccccn3)N(C)C)n2n1 (centres undefined) | 3.67%
27 | CCN(Cc1cc(F)ccc1Cl)C1CCS(=O)(=O)C1 (centres undefined) | 29.9%
28 | COc1ccc(CC2(CO)CCN(c3cc(N)ncn3)CC2)cc1 | -6.39%
29 | Nc1nc2c(c(N3CCSCC3)n1)CCN(Cc1ccccn1)CC2 | -2.53%
30 | CNC(=O)c1[nH]nc2c1CN(c1cc(C3CCCNC3)nc(C)n1)CC2 (centres undefined) | -10.6%
31 | CCc1noc(C)c1-c1nc(Cc2cccs2)nn1C1CCN(C)CC1 | -1.49%
32 | CN(C)C(=O)N1CCN(Cc2nc3ccccc3[nH]2)[C@H]2CS(=O)(=O)C[C@H]21 | 25%
33 | Cc1ccc(C(=O)O)cc1-c1cccc(C(C)N(C)C)c1 (centres undefined) | -2.39%
34 | CC(C)COc1cccc(-c2nc3c([nH]2)CCNC3)c1 | 3.41%
35 | O=C(O)C(c1ccc2c(c1)OCCO2)N1CCCC1 (centres undefined) | -3.29%
36 | CN(CC1(CO)CCCC1)C(=O)c1cc(COc2ccccc2F)[nH]n1 | -6.26%
37 | Cc1ncccc1OC1(C(=O)NCCC2CCCN2C)CCNCC1 (centres undefined) | 13.7%
38 | CN(C)C(=O)N1C[C@@H]2CC[C@H](C1)N(C/C=C/c1ccc(F)cc1)C2 | -9.21%
39 | O=C(O)CC[C@@H]1CN(c2ccncc2)CC[C@@H]1N1CCOCC1 | -3.32%
40 | CCN(CC)C(=O)[C@@H]1C[C@H](n2cc(-c3ccccn3)nn2)CN1 | 12%
41 | COc1cccc([C@@H]2CCN(Cc3c[nH]c(C)n3)C[C@H]2O)c1 | 17.7%
42 | CC1(COc2ccccc2)NCCc2[nH]cnc21 (centres undefined) | -2.27%
43 | O=C(NCc1nncn1C1CCCCC1)C1COc2ccccc2C1 (centres undefined) | -4%
44 | O[C@H]1CN(c2nc(-c3ccccc3)no2)C[C@@H]1N1CCOCC1 | 6.13%
45 | COc1cccc2c1OCC(NCCc1cnn(-c3ccccc3)c1)C2 (centres undefined) | -8.4%
46 | O=S1(=O)C[C@@H]2[C@H](C1)N(S(=O)(=O)N1CCCC1)CCN2Cc1ccccc1 | -5.47%

Row | SMILES | cytotoxicity at 70.5 h
47 | CCCc1nnc(N2CCC3(CC2)CC(=O)NC(=O)C3)o1 | 24.4%
48 | Cc1ccc(C)c(C(=O)N2CCC3(CCC(=O)N(CC(N)=O)C3)CC2)c1 | 29.9%
49 | Cc1[nH]ccc1C(=O)N1CCN(C)C2(CCC(=O)N(C)CC2)C1 (centres undefined) | -11.2%
50 | CN(CC(=O)N1CC(C)(C)[C@](O)(C2CC2)C1)Cc1ccncc1 | -3.61%
51 | Cc1ccccc1SC1CCN(C(=O)C2CNC(=O)N2)CC1 (centres undefined) | 2.9%
52 | O=C(NCCN1CCNC1=O)c1cnc(-c2cccnc2)nc1 | -3.28%
53 | CNc1ncccc1C(=O)N1CCc2c(nc(N)[nH]c2=O)C1 | -3.13%
54 | O=C(Cc1ccccc1C(F)(F)F)N1CCC2(CC1)OCCCC2O (centres undefined) | -16.7%
55 | COCCCC1(CO)CCCN(Cc2nccs2)C1 (centres undefined) | -7.41%
56 | CC(C)(C)CC(=O)NS(=O)(=O)c1ccc(C#N)cc1C(F)(F)F | 13.5%
57 | COc1ccc(Cl)cc1NCC(=O)NCCNc1ncccn1 | -2.38%
58 | Cn1ccnc1CN1CCN(CC(=O)NCc2ccccc2F)CC1 | 1.39%
59 | Cn1ccnc1CN1CCN(CC(=O)NCc2cccs2)CC1 | 13.9%
60 | Cc1nnc(CN(Cc2ccc3c(c2)OCO3)C2CCCCC2)o1 | -2.59%
61 | Cc1nnc(CN(Cc2ccc3c(c2)OCO3)C2CCC(C)CC2)o1 (centres undefined) | -1.97%
62 | CCOc1ccnc(N2CCN(C(=O)c3ccn(C)c(=O)c3)CC2)n1 | -1.73%
63 | Cc1cnn(CC2CCCN2Cc2nnc(C3CC3)o2)c1 (centres undefined) | 13.5%
64 | Cc1ccccc1CNC(=O)C1CCN(Cc2nccn2C)CC1 | -0.376%
65 | COc1ccc(CNCC2CCN(c3ccccc3OC)C2)cc1O (centres undefined) | 5.43%
66 | c1cc2c(cc1CN(Cc1nc(C3CC3)no1)C1CCCC1)OCO2 | 6.65%
67 | Cc1cccc(CN2CCC(N(C)Cc3nnc(C4CC4)n3C)C2)c1 (centres undefined) | -1.59%
68 | CN(Cc1nnc(C2CC2)n1C)C1CCN(Cc2ccncc2)C1 (centres undefined) | -2.37%
69 | CC(C)c1noc(C(C)N2CCN(CCCN3CCCC3=O)CC2)n1 (centres undefined) | -0.928%

Row | SMILES | cytotoxicity at 70.5 h
70 | Cc1ccc(NC2CCN(C(=O)C(C(C)C)n3cncn3)CC2)nn1 (centres undefined) | -4.96%
71 | COc1ccc(CN(Cc2nc(C)no2)C2CCCCC2)cc1OC | -1.31%
72 | CC(C(=O)N1CCC(Nc2cccnn2)CC1)n1cccn1 (centres undefined) | 20.4%
73 | Cc1nnc(C(C)N2CCCN(Cc3ccc(F)cc3)CC2)o1 (centres undefined) | -2.19%
74 | c1ccc(Cc2nnc(CN3CCCC3Cn3cccn3)o2)cc1 (centres undefined) | -1.31%
75 | Cc1nn(CC(C)C)c(N(C)C)c1CNCc1ccnn1C | 28.6%
76 | CC(C(=O)N1CCCN(Cc2cnn(C(C)C)c2)CC1)n1ccnc1 (centres undefined) | 23.5%
77 | Cc1cnn(C2CCCN(C(=O)CCCn3ccnc3C)C2)c1 (centres undefined) | 19.3%
78 | CC1COCCN1Cc1nc(-c2ccc(F)cc2)no1 (centres undefined) | -0.197%
79 | CC(C)n1cc(CN2CCCN(C(=O)CC3CCCCC3)CC2)cn1 | -0.435%
80 | Cc1nc(C)n(CC2CCCN(Cc3cccc(F)c3F)C2)n1 (centres undefined) | 2.26%
81 | COc1cccc(CN2CCCC(Cn3nc(C)nc3C)C2)c1 (centres undefined) | -1.83%
82 | CC(C)c1cnc(CN2CCCC(c3cc(C(N)=O)[nH]n3)C2)o1 (centres undefined) | 2.28%
83 | Cc1cnn(C2CCCN(C(=O)CCc3cscn3)C2)c1 (centres undefined) | 2.26%
84 | COc1c(CNCc2ccccc2Cn2ccnc2)c(C)nn1C | -0.234%
85 | COc1c(CNCc2cccc(Cn3cccn3)c2)c(C)nn1C | 3.69%
86 | CC(C(=O)NCc1ccc(N2CCCCCC2)nc1)n1cncn1 (centres undefined) | 3.18%
87 | CC(C(=O)NCc1ccc(N2CCCCC2)nc1)n1cncn1 (centres undefined) | -3.82%
88 | Cc1cccc(-c2ccc(C(=O)NCC3CCCO3)c(=O)[nH]2)c1 (centres undefined) | -10.2%
89 | COc1c(CNCc2ccc(Cn3ccnc3)cc2)c(C)nn1C | 0.712%
90 | Cc1cnn(C2CCCN(C(=O)CCNS(C)(=O)=O)C2)c1 (centres undefined) | 24.7%
91 | CCc1nnc(CN2CCCC(c3cc(C(N)=O)[nH]n3)C2)o1 (centres undefined) | -6.39%
92 | CC(NCc1ccccc1Cl)c1ccc2[nH]c(=O)[nH]c2c1 (centres undefined) | 7.48%

Row | SMILES | cytotoxicity at 70.5 h
93 | Cc1nn(CCO)c(C)c1CNCc1cccnc1N(C)C | -4.11%
94 | Cc1n[nH]c(C)c1C1COCCN1C(=O)c1ccc(Cl)o1 (centres undefined) | 18%
95 | Cc1ncsc1C(=O)N(Cc1ccccn1)C1CC1 | 10%
96 | Cc1cc(CNc2cc(Cl)ccc2C)no1 | -11.6%
97 | Cc1cc(CNc2ccccc2Cl)no1 | -13.4%
98 | CCC(N)c1ccccc1OCC(=O)N1CCCC1 (centres undefined) | -7.75%
99 | Cc1ccccc1CC(=O)N1CCOCC1c1c(C)n[nH]c1C (centres undefined) | -6.23%
100 | c1ccc(-n2nc(CNC3CCc4ncnn4C3)c3c2CCC3)cc1 (centres undefined) | 9.35%
101 | COc1ccccc1C(=O)N1CCOCC1c1c(C)n[nH]c1C (centres undefined) | -15.2%
102 | CC(C)c1nnc(CN2CCCC(Cn3cncn3)C2)o1 (centres undefined) | -7.64%
103 | Cc1ncsc1C(=O)N(Cc1cccs1)C1CC1 | -16.1%
104 | CCc1nc2n(n1)CC(NCc1cnn(-c3ccccc3)n1)CC2 (centres undefined) | -9.79%
105 | c1ncn(CC2CCCN(Cc3nnc(C4CC4)o3)C2)n1 (centres undefined) | 11.5%
106 | COc1ncccc1CNC(=O)c1cnccn1 | -12.4%
107 | COc1ncccc1CNC(=O)c1cnc(C)cn1 | -3.16%
108 | CCC(NC(=O)c1ccoc1)c1ccccc1OCC(=O)N1CCCC1 (centres undefined) | -3.93%
109 | Cc1ccccc1C1(C(=O)NCCN(C(C)C)C(C)C)CCOCC1 | -10%
110 | O=C(NCCN1CCCC1)C1(c2ccc(Cl)cc2)CCOCC1 | -3%
111 | Cc1ccc(NC(=O)C2CSCN2C(=O)c2cnsn2)c(C)c1 (centres undefined) | -6.91%
112 | Cc1ccc(NC(=O)C2CSCN2C(=O)c2ccncc2)c(C)c1 (centres undefined) | -4.2%
113 | CC(C)c1ccc(OCCNC(=O)N2CCS(=O)(=O)CC2)cc1 | -2.35%
114 | Cc1cnn(C2CCCN(C(=O)c3ccccc3-n3cnnn3)C2)c1 (centres undefined) | -3.2%

From ChEMBL document CHEMBL3507680, “University of Dundee, Gates Library screen for HepG2 cell viability”
